Laboratory results published in paper PMC8047011, “Enantiomers of 2-methylglutamate and 2-methylglutamine selectively impact mouse brain metabolism and behavior” (Scientific Reports, 2021).

Assays:
[1] = Metabolism in synaptosomes (GABA shunt, glutamate-glutamine cycle); type: in vitro ADME, mouse; conditions: mouse, mouse cerebral synaptosomes; synaptosomes preloaded with 100 μM substrate, 37 °C; estimated; read-out: Synaptosomal concentration half life
Method: (§1) To each tube, a 5 μL aliquot of a test compound solution (final concentration 100 μM) in Buffer KRP or Buffer KRP alone were added. The samples were incubated for 15 min at 37 °C, briefly chilled on ice, and then immediately centrifuged and washed twice by resuspension-centrifugation with Buffer S (0.5 mL). The pellets were then resuspended in Buffer KRP (500 μL). Samples were then immediately centrifuged or incubated for 5, 10, 15, 20, 25 or 30 min at 37 °C and then centrifuged and washed by resuspension-centrifugation with Buffer S (0.5 mL). Resulting pellets were resuspended in 170 μL of 0.1% aqueous formic acid, mixed with 330 μL of ACN. To each tube, 5 μL of 2MeGlu solution (final concentration 100 μM) in Buffer KRP or Buffer KRP alone were added. The samples were incubated for 15 min at 37 °C, briefly chilled on ice, and then immediately centrifuged and washed twice by resuspension-centrifugation with Buffer S (0.5 mL). The pellets were then resuspended in Buffer KRP (200 μL). Samples were then kept on ice or incubated for 10, 20, 30, 40 or 50 min at 37 °C and then chilled on ice. Then all samples were centrifuged, 200 μL of supernatants were collected, and the pellets were suspended in 200 μL of 80% ACN. Supernatants and pellet suspensions were diluted with 250 μL of ACN and 50 μL of 10 μM d[…] in water as internal standard.

[2] = system: mouse cerebral synaptosomes; test: as above; type: in vitro ADME; conditions: synaptosomes preloaded with 100 μM substrate
Method: as §1

[3] = molecular target: human glutamine synthetase (Homo sapiens, UniProt P15104); parameters: method as in PMID 5320388; conditions: identical conditions with L-Glu; cited from earlier work
[4] = system: mouse cerebral synaptosomes; test: Synaptosomal neurotransmitter uptake assay; type: cell-based; conditions: 10 μM substrate, 37 °C
Method: Mouse cerebral synaptosomes were prepared according to published methods. See Supplementary Methods for details. 500 μL aliquots of the synaptosome suspension were transferred to pre-chilled microcentrifuge tubes for experiments. Centrifugations were at 8000g for 4 min at 4 °C, unless stated otherwise, and all samples were stored at − 80 °C.
To each tube, 5 μL of a test compound solution (final concentration 10 μM) in Buffer KRP or Buffer KRP alone were added. Samples were incubated at 4 °C or 37 °C for 1, 10, or 30 min and then immediately centrifuged and washed twice by resuspension–centrifugation with Buffer S (0.5 mL). Resulting pellets were resuspended in 170 μL of 0.1% aqueous formic acid and mixed with 330 μL of ACN.
Buffer S (4 mL, × 1) and Buffer KRP (2 mL, × 3). The resulting pellet was resuspended in 3 mL of Buffer KRP and filtered on Ultrafree-CL 5 μm PVDF centrifugal device (1,000g for 4 min at 4 °C). The filtrate was diluted to 15 mL with ice cold Buffer KRP and kept on ice. The synaptosome preparation was used immediately in the following experiments.
Synaptosomal neurotransmitter uptake assay
96-well plate experiments: 250 μL aliquots of the synaptosome suspension were transferred to two 0.8-mL 96 well plates, one on ice (0 °C samples only) and one in a thermoblock (37 °C samples only), and equilibrated for 10 min. 5 μL of a test compound (0.5 mM; final concentration: 10 μM) in Buffer KRP or Buffer KRP blank were added 10, 20 or 30 min before the incubation termination. “0 min” samples were prepared by placing the test compound solution in a separate pre-chilled V-shape bottom 2-mL 96 well plate; at the end of incubation 200 μL aliquots of all samples were transferred to the 2-mL 96 well plate and centrifuged (2,500g for 15 min at 4 °C) immediately. The resulting pellets were rinsed with Buffer KRP, followed by centrifugation, twice, then resuspended in 200 μL of 60% ACN containing 2.5 μM Glu-d5 as internal standard and stored at –80 °C until analysis. […]

[5] = system: mouse cerebral synaptosomes; test: Potassium-induced neurotransmitter release assay; type: cell-based; conditions: preincubated with 100 μM substrate 15 min 37 °C; high-potassium KRP buffer
Method: To each tube, 2.5 μL of a test compound solution (final concentration 100 μM) in Buffer KRP or Buffer KRP alone were added. Samples were incubated for 15 min at 37 °C, briefly chilled on ice, and then immediately centrifuged and washed twice with Buffer KRP. The resulting pellets were then resuspended in either Buffer KRP (500 μL) or Buffer K-KRP (500 μL). Samples were immediately centrifuged or incubated for 5, 10 or 15 min at 37 °C, then centrifuged and washed with Buffer KRP. Resulting pellets were resuspended in 400 μL of 60% ACN containing 2.5 μM Glu-d5 and 2.5 μM Gln-d5 as internal standards.

[6] = molecular target: T1, human glutaminase GLS1 (Homo sapiens, UniProt O94925); test: Catalysis of 2MeGln hydrolysis by GLS1 glutaminase; type: biochemical
T1 sequence (O94925 55-669): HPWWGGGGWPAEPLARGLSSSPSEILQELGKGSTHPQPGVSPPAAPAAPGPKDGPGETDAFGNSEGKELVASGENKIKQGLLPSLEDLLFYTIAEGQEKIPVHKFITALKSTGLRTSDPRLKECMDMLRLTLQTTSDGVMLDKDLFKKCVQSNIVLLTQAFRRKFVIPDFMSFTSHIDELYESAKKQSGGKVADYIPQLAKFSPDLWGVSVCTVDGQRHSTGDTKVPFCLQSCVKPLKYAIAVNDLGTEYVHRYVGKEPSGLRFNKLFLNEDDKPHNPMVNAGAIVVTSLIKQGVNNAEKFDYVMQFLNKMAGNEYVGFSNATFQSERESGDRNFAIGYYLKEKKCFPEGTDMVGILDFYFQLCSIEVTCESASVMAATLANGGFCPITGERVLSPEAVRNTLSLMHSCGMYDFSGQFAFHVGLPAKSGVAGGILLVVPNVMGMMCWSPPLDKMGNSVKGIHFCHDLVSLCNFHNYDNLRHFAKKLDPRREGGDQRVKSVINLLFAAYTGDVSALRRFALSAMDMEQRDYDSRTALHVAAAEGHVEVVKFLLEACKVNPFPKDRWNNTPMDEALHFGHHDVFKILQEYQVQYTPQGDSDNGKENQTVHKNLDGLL
Method: The procedure was adapted from an existing protocol. To a reaction mixture in a 1.5 mL microcentrifuge tube containing 10 mM rac-2MeGln or L-Gln-^13C2 in 100 mM phosphate pH 7.4 buffer made in 20% atom ^18O water, recombinant GLS1 (final concentration: 5 ng/mL) was added. The tubes were incubated in a preheated thermomixer at 37 °C and periodically shaken at 600 rpm (30 s on, 30 s off). 5 μL aliquots were collected in triplicate every 5 min and immediately diluted with 195 μL of cold 60% ACN containing 10 μM Glu-d5 and Gln-d5 as internal standards in a 96 well plate. After collecting all samples, the plate was shaken at 1000 rpm for 5 min at room temperature, and then stored at − 80 °C. Before analysis the plate was thawed and 10 μL aliquots of the extracted reaction mixtures were diluted with 190 μL of 90% acetonitrile.
The quantification of the newly formed 2MeGlu in the presence of the preexisting trace amounts was performed in the following way. Peak area ratio of Glu-^13C2 to Glu-^13C2^18O was calculated in all samples containing Glu-^13C2. The mean ratio value was then applied to calculate the hypothetical peak area of the newly formed 2MeGlu based on the directly measured 2MeGlu-^18O peak area. The ratio of the newly formed 2MeGlu peak area and the total 2MeGlu peak area was applied to calculate the concentration of the newly formed 2MeGlu from the total 2MeGlu concentration determined directly using the calibration curve.

[7] = system: murine primary cerebral cortical neuron cultures; test: Neuronal transport and metabolism of 2MeGln; type: cell-based, mouse; conditions: 1 mM substrate, 2 h, 37 °C; data not shown
Method: The procedure was adapted from an existing protocol. Wild-type (WT) C57BL/6J mating pairs were housed according to Stanford IACUC protocol. On day P0, pups were euthanized and brains dissected in cold HBSS (without Ca^2+ or Mg^2+). The forebrain was microdissected to isolate the cortex and hippocampus. These brain regions were minced in cold HBSS before trypsinization at 37 °C for 9 min, followed by trituration, through 2 glass polished Pasteur pipettes. The resulting cell suspension was passed through a 100 μm filter to isolate single cells which were sedimented at 250g for 5 min. The cell pellet was then resuspended in complete Neural Basal Media (Neural Basal Media + Glutamax + B-27 Plus Supplement + Pen/Strep) + 10%FBS, counted using a hemocytometer and plated at 1 × 10^6 cells per mL into a 24 well plate (1 mL per well) coated with poly-D-lysine and laminin. Cultures were grown at 37 °C/5% CO2 in a tissue culture incubator. Media was exchanged 50% on day 1 in vitro (1DIV) with fresh complete Neural Basal Media without FBS and thereafter every other day with the same media. On 3DIV the media was spiked with 2 μM AraC to limit glial growth. On 10DIV the media was completely replaced with 500 μL Neural Basal Media containing B-27 Plus Supplement + Pen/Strep without added Glutamax but instead containing 1 mM substrate at 37 °C for 2 h. […]

[8] = system: primary murine cerebral astrocytes; test: Astrocyte transport and metabolism of 2MeGlu; type: cell-based, mouse; conditions: 1 mM substrate, 2 h, 37 °C
Method: Primary astrocytes from C57Bl/6 mouse brain were cultured in complete astrocyte growth medium at 37 °C at 5% CO2 on 96 well plates. Cells were exposed to 1 mM compound in 100 μL medium for 2 h at 37 °C. Supernatants were collected, centrifuged at 2500g for 10 min at 4 °C. 10 μL aliquots were diluted with 190 μL 60% ACN containing 10 μM Glu-d5 and Gln-d5. Cells were quickly washed with 250 μL cold PBS twice and suspended in 200 μL of 60% ACN containing 10 μM Glu-d5 and Gln-d5. All samples were shaken at 1000 rpm for 5 min and then stored at – 80 °C.

Chain of human glutamine synthetase (P15104 whole entry): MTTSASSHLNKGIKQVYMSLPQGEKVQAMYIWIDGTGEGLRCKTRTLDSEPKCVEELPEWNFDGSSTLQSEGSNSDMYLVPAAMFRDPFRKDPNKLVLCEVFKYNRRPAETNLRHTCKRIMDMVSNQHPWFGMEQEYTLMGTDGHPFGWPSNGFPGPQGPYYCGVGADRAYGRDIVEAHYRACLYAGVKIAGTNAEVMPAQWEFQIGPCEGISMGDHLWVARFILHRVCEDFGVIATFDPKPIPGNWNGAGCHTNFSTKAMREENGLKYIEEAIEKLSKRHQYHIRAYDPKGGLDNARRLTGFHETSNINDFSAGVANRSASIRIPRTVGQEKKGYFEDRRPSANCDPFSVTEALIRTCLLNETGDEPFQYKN

SMILES: CC(N)(CCC(=O)O)C(=O)O (racemic) [rac-2MeGlu, 2-methylglutamate]
- half-life at 100 μM [1]: 21 min
- Metabolism along the GABA shunt in synaptosomes [2]: not associated with the concurrent appearance of 4APA or any other 2Me analogue within the GABA shunt
- Inorganic phosphate released with GS and ATP relative to L-Glu [3]: 50%

SMILES: CC(N)CCC(=O)O (racemic) [rac-4APA, 4-aminopentanoic acid]
- Transport into synaptosomes [4]: transported into synaptosomes
- Potassium-induced release from preloaded synaptosomes [5]: exhibited high potassium concentration-dependent release

SMILES: C[C@](N)(CCC(N)=O)C(=O)O [(S)-2MeGln, (S)-2-methylglutamine]
- Substrate for GLS1 [6]: substrates of GS and GLS1, respectively

SMILES: NC(=O)CC[C@H](N)C(=O)O [Gln, L-glutamine, reference compound]
- Apparent reaction rate of GLS1 hydrolysis ([6]; 10 mM substrate, 5 ng/mL enzyme, phosphate pH 7.4): 65 µM/min

SMILES: NC(=O)CC[13C@H](N)[13C](=O)O [L-[1,2-^13C]Gln]
- Intracellular [1,2-13C]Gln relative to 2MeGln in neurons [7]: twofold lower
- Intracellular [1,2-13C]Glu relative to 2MeGlu in neurons [7]: over fivefold lower

SMILES: N[C@@H](CCC(=O)O)C(=O)O [L-[1,2-^13C]Glu, reference compound]
- Extracellular concentration of amide product (2MeGln or [1,2-13C]Gln), astrocyte cultures [8]: 5.0 nmol/well
- Intracellular concentration of amide product (2MeGln or [1,2-13C]Gln) in astrocytes [8]: 0.26 nmol/well
